This note sets out measurements from US12134663B2, “Cationic peptides for activating Lck” (Interk Peptide Therapeutics Limited, priority 2018, dated 2024).

Test [1] addresses T1, Lck (Homo sapiens, UniProt P06239).
T1 construct: purchased Eurofins Pharma Discovery Services UK Limited
As to the kind of experiment: In vitro Lck activation kinase study (Eurofins). The conditions noted are these: peptide 1 μM; relative to control. The test is classed as biochemical. As for the experimental part: The ability of polypeptides of the present invention to activate Lck was examined in vitro. Lck is member of the Src family of tyrosine kinases. […] All results in are percentage Lck activity relative to control (100%).
Test polypeptides were assessed at a concentration of 1.0 μM.
The ability of polypeptides of the present invention to activate Src family kinases was examined in vitro. Kinase activation studies utilising peptides were carried out as described in Example 1, and all kinase activity values are shown as percentage relative to control.
The ability of polypeptides comprising both lysine and arginine to activate Lck in vitro was examined. Lck activation studies utilising peptides were carried out as described in Example 1, and all kinase activity values are shown as percentage relative to control.

In test [2] the test system is exhausted CD4+ T cells. As to the kind of experiment: CD4+ T cell exhaustion assay, CD25 on restimulation. As to conditions: 72 hours; relative to IK14000 control peptide. The class given is cell-based, murine. From the text:
A CD4+ T cell exhaustion assay using a murine model (Tg4 Ly5.1 (MBP-Tracker Mouse), B10PIxC57BL/6) was used whereby CD4+ T cell receptor transgenic T cells are stimulated with wild-type myelin basic protein peptide (WT-MBP) to produce fully responsive effector T cells or altered peptide ligand peptide MBP (APL-MBP) to produce exhausted T cells. These are rested in IL-2 and then a secondary stimulation with APC, a dose of APL-MBP peptide along with any treatments under investigation.
Spleens from the aforementioned mice were removed and processed to generate a single cell suspension of splenocytes. MBP-Tracker splenocytes were resuspended at 3×10^6/mL and stimulated with WT-MBP (control, non-exhausted cells) or APL-MBP (to generate exhausted cells). Cells were stimulated for 72 hr. Following stimulation, T cells were purified by Ficoll density gradient, and subsequently re-plated at 2×10^6/mL in 20 U/mL IL-2 for four days. […] Following 48-72b hours of culture the cells were assessed by flow cytometry for markers of IL-2Ra and proliferation (CD25 and Ki-67, respectively) and supernatant was collected for assessment of cytokine production (IFN-γ and TNF-α) by ELISA or multiplexed immunoassays. […]

The test system of test [3] is anti-CD3 stimulated PBMCs. Description: IL-12p70 secretion in anti-CD3 stimulated PBMCs. The class given is cell-based, human. The conditions noted are these: 24 hours. How it is done: The ability of Lck activating polypeptides to alter IL-12 (IL-12p70) secretion was examined further. In brief, anti-CD3 stimulated PBMCs were cultured together with the Lck activating polypeptides RVKVKVVVV-RRRRRRRRR (SEQ ID NO: 58, “IK15800”), RSKAKNPLY-RRRRRRRRR (SEQ ID NO: 24, “IK14800”), and RVKVKVVVV-RRRRRRRRR (SEQ ID NO: 58) and RSKAKNPLY-RRRRRRRRR (SEQ ID NO: 24) comprising only D amino acids (SEQ ID NO: 111, “IKD15800”, and SEQ ID NO: 129, “IKD14800”, respectively), in the presence and absence of anti-CD40L blocking antibody for 24 hours. Supernatants were assessed for IL-12p70 levels by ELISA.
The ability of Lck activating polypeptides to alter IL-12 (IL-12p70) secretion was examined relative to no peptide. In brief, PBMCs were cultured together with anti-CD3 (1 ug/ml) and the Lck activating polypeptide RSKAKNPLY-RRRRRRRRR (SEQ ID NO: 24) or RVKVKVVVV-RRRRRRRRR (SEQ ID NO: 58) for 24 or 72 hours. Supernatants were assessed for IL-12p70 levels by ELISA.

The subject of test [4] is isolated human CD4+ T cells. Description: IFN-γ secretion in stimulated CD4+ T cell assay. The class given is cell-based. The conditions noted are these: anti-CD3 anti-CD28 Dynabeads, 24 hours. As for the experimental part: The ability of Lck activating polypeptides to alter IFN-γ secretion by isolated human CD4+ T cells in a stimulated CD4+ T cell assay was also examined. In brief, Isolated CD4+ T cells were stimulated with anti-CD3 anti-CD28 Dynabeads™ and cultured together with the Lck activating polypeptides RRRRRRRRR (SEQ ID NO: 6, IK00900) and RSKAKNPLY-RRRRRRRRR (SEQ ID NO: 24, IK14800) for 24 hours after which supernatants were assessed for IFN-γ by ELISA.
The ability of Lck activating polypeptides comprising D amino acids to alter IFN-γ secretion by isolated human CD4+ T cells in a stimulated CD4+ T cell assay was also examined. In brief, Isolated CD4+ T cells were stimulated with anti-CD3 anti-CD28 Dynabeads™ and cultured together with the Lck activating polypeptide RSKAKNPLY-RRRRRRRRR (SEQ ID NO: 24, IK14800), or the Lck activating polypeptide RSKAKNPLY-RRRRRRRRR (SEQ ID NO: 24) comprising only D amino acids (SEQ ID NO: 129, IKD14800), for 24 hours after which supernatants were assessed for IFN-γ by ELISA.

Test [5] deals with isolated human CD8+ T cells. As to the kind of experiment: IFN-γ secretion in stimulated CD8+ T cell assay. The test is classed as cell-based. As to conditions: anti-CD3 anti-CD28 Dynabeads, 24 hours. As for the experimental part:
The ability of Lck activating polypeptides to alter IFN-γ secretion by isolated human CD8+ T cells in a stimulated CD8+ T cell assay was examined. In brief, Isolated CD8+ T cells were stimulated with anti-CD3 anti-CD28 Dynabeads™ and cultured together with the Lck activating polypeptides RRRRRRRRR (SEQ ID NO: 6, IK00900) and RSKAKNPLY-RRRRRRRRR (SEQ ID NO: 24, IK14800) for 24 hours after which supernatants were assessed for IFN-γ by ELISA.
In brief, Isolated CD8+ T cells were stimulated with anti-CD3 anti-CD28 Dynabeads™ and cultured together with the Lck activating polypeptide RSKAKNPLY-RRRRRRRRR (SEQ ID NO: 24), comprising only D amino acids (SEQ ID NO: 129, IKD14800), for 24 hours after which supernatants were assessed for IFN-γ by ELISA.

Test [6] deals with isolated CD8+ T cells. As to the kind of experiment: IL-18Ra expression on stimulated CD8+ T cells. The class given is cell-based, human. The conditions noted are these: 24 hours; data not shown. How it is done: The effect of Lck activating polypeptides on IL-18Ra expression on CD4+ and CD8+ T cells in stimulated CD4+ and CD8+ T cell assays was examined. In brief, isolated CD8+ T cells were stimulated with anti-CD3 anti-CD28 Dynabeads™ and cultured together with the Lck activating polypeptides RSKAKNPLY-RRRRRRRRR (SEQ ID NO: 24), and RSKAKNPLY-RRRRRRRRR (SEQ ID NO: 24) comprising only D amino acids (SEQ ID NO: 129), for 24 hours after which cells were assessed for IL-18Ra expression by flow cytometry.

For test [7], the system named is isolated CD4+ T cells. Description: IL-18Ra expression on stimulated CD4+ T cells. The class given is cell-based, human. The conditions noted are these: 24 hours; data not shown. How it is done:
Isolated CD4+ T cells were stimulated with anti-CD3 anti-CD28 Dynabeads™ and cultured together with the Lck activating polypeptides RSKAKNPLY-RRRRRRRRR (SEQ ID NO: 24), and RSKAKNPLY-RRRRRRRRR (SEQ ID NO: 24) comprising only D amino acids (SEQ ID NO: 129), for 24 hours after which cells were assessed for IL-18Ra expression by flow cytometry.

Test [8] concerns isolated T cells (CD3+). Description: IL-2 secretion from isolated T cells (CD3+). The class given is cell-based, human. As to conditions: anti-CD3 anti-CD28 Dynabeads, 0-1.25 μM, 72 hours. How it is done: In brief, isolated T cells (CD3+) were stimulated with anti-CD3 anti-CD28 Dynabeads™ and cultured together the Lck activating polypeptides RSKAKNPLY-RRRRRRRRR (SEQ ID NO: 24, “IK14800”), RVKVKVVVV-RRRRRRRRR (SEQ ID NO: 58, “IK15800”), and RVKVKVVVV-RRRRRRRRR ([…]) comprising only D amino acids (i.e. rvkvkvvvv-rrrrrrrrr; […], “IKD15800”), over a 5-concentration range plus vehicle control (0-1.25 μM) for 72 hours after which supernatants were collected and assessed for IL-2 by ELISA.

The test system of test [9] is CD3neg CD56+ NK cells. As to the kind of experiment: CD3neg CD56+ NK cells within stimulated PBMCs (Ki67, CD25, CD215, CD360). The test is classed as cell-based, human. As to conditions: data not shown. As for the experimental part:
The ability of Lck activating polypeptides to induce proliferation of isolated human CD3^neg CD56^+ NK cells within PBMCs was examined. In brief, anti-CD3 stimulated PBMCs were cultured together with the Lck activating polypeptide rvkvkvvvv-rrrrrrrrr (SEQ ID NO: 111, IKD15800) for 72 hours after which CD3^neg CD56^+ NK cells were assessed for Ki67 expression by flow cytometry. Ki67 is a proliferation marker used to determine the growth fraction of a given cell population, in this case CD3^neg CD56^+ NK cells.

Test [10] concerns CD4+ T cells. Description: pSTAT4 expression in stimulated T cell assay. The class given is cell-based, human. The conditions noted are these: 0-1.25 μM, 72 hours; data not shown. The source says:
The effect of Lck activating polypeptides on intracellular pSTAT4 expression in CD4+ and CD8+ T cells in a stimulated T cell assay was examined. In brief, isolated T cells (CD3+) were stimulated with anti-CD3 anti-CD28 Dynabeads™ and cultured together with the Lck activating polypeptides RSKAKNPLY-RRRRRRRRR (SEQ ID NO: 24), RVKVKVVVV-RRRRRRRRR (SEQ ID NO: 58) and RVKVKVVVV-RRRRRRRRR (SEQ ID NO: 58) comprising only D amino acids (SEQ ID NO: 111), over a 5-concentration range plus vehicle control (0-1.25 μM) for 72 hours after which […] assessed for p-STAT4 expression by flow cytometry.

The subject of test [11] is immature monocyte derived DCs (iMoDCs). As to the kind of experiment: Dendritic cell phenotype (CD14 expression) in immature DC cultures. The test is classed as cell-based. As to conditions: CD40L 5 ug/mL and anti-CD3, 72 hours; data not shown. As for the experimental part:
The effect of CD40L on dendritic cell phenotype (CD14 expression) in isolated immature DC cell cultures was examined. In brief, immature monocyte derived DCs (iMoDCs) were derived from isolated CD14+ monocytes cultured for 7 days in MoDC differentiation media. iMoDCs were cultured for 72 hours in the presence of CD40L (5 ug/mL) and anti-CD3 (1 ug/mL). After 72 hours, cells were assessed for CD14 and CD11c expression by flow cytometry to determine DC cell phenotype.
In brief, immature monocyte derived DCs (iMoDCs) were derived from isolated CD14+ monocytes cultured for 7 days in Mo-DC differentiation media. iMoDCs were cultured for 72 hrs in the presence of test peptides over a 5-point concentration curve plus vehicle (0-1.25 μM) and anti-CD3 (1 μg/mL). After 72 hrs, cells were assessed for CD14 and CD11c expression by flow cytometry to determine DC cell phenotype. Data presented indicates the mean respective CD14 positive or negative cell populations (%) within CD11c positive population in response to peptide treatment, +/− SEM, n=4. Data were analysed by RM two-way ANOVA with Dunnett's post-test comparing each peptide concentration with vehicle, *p<0.05, **p<0.01, ***p<0.001.

Where no end group is shown, it is not given here. [ ]: non-standard residue; d: D form.

T1 sequence (P06239 whole entry): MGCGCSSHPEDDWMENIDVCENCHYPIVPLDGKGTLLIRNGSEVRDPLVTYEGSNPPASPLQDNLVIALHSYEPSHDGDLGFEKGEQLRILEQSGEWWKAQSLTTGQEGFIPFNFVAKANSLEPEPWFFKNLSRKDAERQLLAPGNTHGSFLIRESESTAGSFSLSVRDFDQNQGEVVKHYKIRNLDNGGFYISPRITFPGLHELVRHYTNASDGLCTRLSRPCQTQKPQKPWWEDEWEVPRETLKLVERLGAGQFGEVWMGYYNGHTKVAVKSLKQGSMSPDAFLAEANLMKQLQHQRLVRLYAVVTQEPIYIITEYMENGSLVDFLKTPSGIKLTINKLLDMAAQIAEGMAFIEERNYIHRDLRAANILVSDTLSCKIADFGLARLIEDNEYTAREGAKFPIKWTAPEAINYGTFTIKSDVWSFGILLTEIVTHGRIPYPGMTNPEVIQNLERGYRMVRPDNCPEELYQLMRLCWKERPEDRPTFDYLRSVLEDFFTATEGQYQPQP

For “rskaknplyrrrrrrrrr ([dR][dS][dK][dA][dK][dN][dP][dL][dY][dR][dR][dR][dR][dR][dR][dR][dR][dR]) [IKD14800]”, in test [1], the “increase in Lck activity” value stood at 490%. Also, the “expression of CD25 in exhausted CD4+ T cells upon restimulation” value in [2] is recorded as “increased”. In test [3], the “IL-12 (IL-12p70) secretion relative to cultures with anti-CD40L blocking antibody” value is “induce IL-12 secretion”. Further, the “IFN-γ secretion relative to no peptide control” value in [4] and in [5] was “induces IFN-γ secretion” each time. Further, the “IL-18Ra expression on CD8+ T cells” value in [6] is listed as “increase IL-18Ra expression”. For the same molecule, the “IL-18Ra expression on CD4+ T cells” value in [7] is “increase IL-18Ra expression”.
Turning to “rvkvkvvvv-rrrrrrrrr ([dR][dV][dK][dV][dK][dV][dV][dV][dV][dR][dR][dR][dR][dR][dR][dR][dR][dR]) [IKD15800]”, the “IL-2 secretion relative to control” value in test [8] is “induce IL-2 secretion”. Further, in test [3], the “IL-12 (IL-12p70) secretion relative to cultures with anti-CD40L blocking antibody” value is given as “induce IL-12 secretion”. In [9] (72 hours), the “proliferating population of CD3neg CD56+ NK cells (Ki67)” value is on record as “increased the proliferating population”. In test [9], the “population of CD3neg CD56+ NK cells that were CD25 positive” value is “increased the population”, the “population of CD3neg CD56+ NK cells that were CD215 positive” value is “increased the population” and the “population of CD3neg CD56+ NK cells that were CD360 positive” value is listed as “increased the population”. The “p-STAT4 expression on CD4+ T cells” value in test [10] was “increase p-STAT4 expression”.

B1: CD40L: CD40L (5 ug/mL) added to immature monocyte derived DC cultures (protein, UniProt P29965 113-261, looked up)
CD40 ligand, soluble form: MQKGDQNPQIAAHVISEASSKTTSVLQWAEKGYYTMSNNLVTLENGKQLTVKRQGLYYIYAQVTFCSNREASSQAPFIASLCLKSPGRFERILLRAANTHSSAKPCGQQSIHLGGVFELQPGASVFVNVTDPSQVSHGTGFTSFGLLKL
In the case of B1, the “proportion of CD14 negative CD11c+ dendritic cells” value in [11] is on record as “increased the proportion of CD14 negative CD11c+ dendritic cells”.
